Measurements reported in patent US10434090B2, “Pharmaceutical composition containing a hypomethylating agent and a histone deacetylase inhibitor” (NIMBLE EPITECH, LLC, priority 2009, dated 2019).

Details: reservoir patch, drug at saturation, cladribine in ethanol/DMSO (50/50), entinostat in ethanol/water (2/1), human cadaver epidermis
Method: A feasibility study of transdermal delivery of cladribine and HDAC inhibitors was conducted using the Franz Cell Method. The scope of the ongoing study is to determine the passive transdermal diffusion rate (passive perfusion) of cladribine and multiple HDAC inhibitors for creation of continuous transdermal delivery for induction therapy.
Cladribine was mixed with about 2 percent of a concentration of a thickener comprising a cellulose component to thicken the cladribine composition.
All testing was performed in an incubator at 32 degrees Celsius.
Round pieces of human cadaveric skin were cut out. The patches were placed on top of the skin and mounted in the Franz Cells between the donor compartment and the receiver compartments of the cell. The two compartments were tightened together with a screw-on pinch clamp.
The results of transdermal flux were graphed as a function of time.

lag time before sustained transdermal delivery: 10 h
optimum transdermal flux (32 degrees Celsius, 24 hour): 170 μg/cm^2/day
SMILES: Nc1nc(Cl)nc2c1ncn2[C@H]1C[C@H](O)[C@@H](CO)O1 [Cladribine]
